In US20240390529A1, “DUAL-MODE PROBE FOR DETECTING HYDROGEN SULFIDE AND USE THEREOF” (KYUNGPOOK NATIONAL UNIVERSITY INDUSTRY-ACADEMIC COOPERATION …, priority 2022, published 2024):

Columns and labels:
[1] = Decomplexation of radiolabeled probe by H2S (radio-TLC)
Method: (§1) The ligand ATSM-FITC(4) was radiolabeled with ^64CuCl2 ions in 0.1M ammonium acetate buffer (pH 6.8) at 60° C., with a radiochemical yield of >97% (FIG. 3). Among the various positron-emitting radioisotopes of copper (^60Cu, ^61Cu, ^62Cu, or ^64Cu), Cu-64 has a moderately long half-life (12.7 hours) and a decay mode favorable for PET imaging (17.8% β+ decay). […] The proportion of demetalized ^64CuS in the intact ^64Cu-ATSM-FITC(6) complex may be easily quantified by radio-TLC analysis. The Rf value of ^64Cu-ATSM-FITC(6) was 0.72 on a silica plate with mobile phase (ethyl acetate methanol (95:5)), and ^64CuS remained at the origin of the TLC plate (FIG. 22). As the concentration of H2S increased, the decomplexation percentage of ^64Cu-ATSM-FITC(6) increased proportionally and reached a plateau at 20 μM of H2S (FIG. 15C). […] The lipophilicity of the radiotracer was measured using the general octanol-PBS partitioning method.

[2] = In vitro stability in FBS and PBS (radio-TLC demetalization); format: in vitro ADME; conditions: 37° C.
Method: ^64Cu-ATSM-FITC(6) (10 μL, 37 MBq) was first mixed with FBS (500 μL) or PBS (pH 7.4) at the same volume, and the mixture was incubated at 37° C. Demetalization was monitored using radio-TLC (silica, MeOH:EtOAc=5:95) for up to 12 hours.
Radioactively labeled ^64Cu-ATSM-FITC(6) (10 μL, 37 MBq) was mixed with 100 μL of FBS or PBS at pH 7.4 in the same amount and incubated at 37° C. using a Thermomixer (500 rpm). In addition, demetalization was measured by radio-TLC (silica, MeOH:EtOAC=5:95) every 4 hours for up to 24 hours.

brain H2S [3] = test: LPS neuroinflammation model, PET imaging and γ-counter quantification of brain hemispheres; format: in vivo, mice; conditions: LPS-treated animals
Method: Mice were mounted in a stereotaxic frame under isoflurane anesthesia. Sterile saline (control) or LPS (5 mg/mL, Sigma-Aldrich, Saint Louis, MO, USA, catalog number: L2630) was injected unilaterally into the right striatum (anterior-posterior [AP], 0.5 mm, medial) of each mouse by using a 28-gauge Hamilton syringe attached to an automatic microinjector. Injection was carried out at a rate of 0.2 μL/min for 10 minutes. After each injection, the needle was left in place for 5 minutes before being slowly retracted.
Brain inflammation and control models were prepared 2 days prior to the study on PET imaging (n=5 each). ^64Cu-ATSM-FITC(6) (˜18 MBq, 200 μL of 5% DMSO/PBS) was injected into mice, and the mice were scanned for 10 minutes at 10 minutes after the injection. In addition, Sprague Dawley rats were injected with radiolabeled ^64Cu-ATSM-FITC(6) (˜18 MBq, 200 μL of 5% DMSO/PBS) through the tail vein, and the mice were scanned for 20 minutes at 1 hour after the injection. CT images were generated immediately without the use of additional contrast agents. All PET images were reconstructed by using the Mediso Tera-Tomo 3D iterative algorithm, together with corrections for interaction depth, radionuclide decay, detector normalization, decision dead time, and attenuation.

brain H2S [4] = test: Animal PET/CT brain imaging, normal and AOAA-treated BALB/c mice; format: in vivo; conditions: 1 hour after injection
Method: Male BALB/c mice (6 to 9 weeks old) were purchased from Hyochang Bioscience (Daegu, Korea). All mice were housed at 20 to 24° C. together with sufficient water and commercial food under a 12-h day/night cycle. For studies on H2S inhibition, male BALB/c mice were injected intraperitoneally with AOAA ((O-(carboxymethyl) hydroxylamine hemihydrochloride, 10 mg/kg, Sigma-Aldrich (C13408-1G)), 1 hour before administered with ^64Cu-ATSM-FITC(6) into the tail vein.
Animal PET/CT images were obtained by using a nanoScan PET/CT scanner (PET 82S, Mediso, Budapest, Hungary). Radiolabeled ^64Cu-ATSM-FITC(6) (˜11 MBq, 200 μL of 5% DMSO/PBS) was injected via tail vein into normal and AOAA-treated BALB/c mice (n=4), and the mice were scanned for 20 minutes at 1 hour after the injection. For PET image-based quantification, regions of interest (ROIs) were manually drawn on the whole brain.
Detection was performed in 1:3 matching smode with four iterations with six subsets. Analysis of the acquired PET/CT images was performed by using the Mediso InterView Fusion software package. The uptake of ^64Cu-ATSM-FITC(6) in each tissue was normalized to the administered radioactive dose and animal body weight and expressed as the average percent injected dose per gram (% ID/g).

brain H2S [5] = test: PET/CT imaging in Parkinson's disease rat model; format: in vivo, SD rats; conditions: PET/CT 1 hour after injection of about 1 mCi
Method: The Parkinson's disease-induced rat model was prepared by taking 7-week-old SD rats and injecting 6-hydroxydopamine (6-OHDA) into the medial forebrain bundle using a Hamilton syringe after drilling a small 1.5 mm hole in the rat's skull near the parietal region at 8 weeks of age.
In addition, the uptake pattern was also different between normal rats and the Parkinson's disease rat model (FIG. 23).

[6] = Lipophilicity, octanol-PBS partitioning; format: physicochemical
Method: as §1

[7] = Biodistribution in normal BALB/c mice (γ-counter); format: in vivo
Method: BALB/c mice (male, 9 weeks old) were used to investigate the systemic distribution and clearance rate of ^64Cu-ATSM-FITC (6). ^64Cu-ATSM-FITC (6) with a radioactivity of 0.56 to 0.74 MBq in a saline solution (5% DMSO, 200 μL) was injected into mice through the tail vein under anesthesia. […] Blood was drawn, and organs comprising heart, lung, muscle, fat, bone, spleen, kidney, liver, intestine, and brain were harvested, weighed, and analyzed by using a γ-counter (Wallac Wizard 1480, PerkinElmer, France). Radioactivity was calculated as percentage of injected dose per gram (% ID/g).
The distribution of ^64Cu-ATSM-aniline in the body was confirmed by using the same method as described in Experimental Methods 5 and 7 above.

CNC([S-])=NN=C(C)C(C)=NN=C([S-])Nc1ccc(-c2c3ccc(=O)cc-3oc3cc(O)ccc23)c(C(=O)O)c1.[64Cu+2] [^64Cu-ATSM-FITC(6)]
reaction with H2S ([1]; forms insoluble ^64CuS precipitate): reacted immediately
H2S concentration at which decomplexation percentage reached a plateau ([1]; radio-TLC): 20 µM
stability in FBS and PBS [2]: high stability
degradation ([2]; FBS and PBS, up to 24 hours after incubation): Less than 10%
increase of radioactivity at the injection site (right hemisphere) versus left hemisphere (brain H2S [3]): 31%
brain uptake in PET imaging (brain H2S [4]; AOAA-treated mice (10 mg/kg i.p.)): 11.4±2.0 % ID/g
brain uptake in PET imaging (brain H2S [4]; control mice): 15.0±1.8 % ID/g
uptake in brain regions in Parkinson's disease rat model versus normal rats (brain H2S [5]): significantly lower
log D7.4 [6]: 1.70±0.05
total injected activity found in the whole brain [7]: more than 3.3%
brain uptake ([7]; at 5 minutes, maintained up to 2 hours after injection): greater than 9 % ID/g
uptake in the heart, lungs, and kidneys ([7]; initially high): gradually decreased over time
